Measurements: patent US20250205356A1, “POLYMER-DRUG CONJUGATES” (PRIMELINK BIOTHERAPEUTICS (SHENZHEN) CO., LTD, priority 2022, published 2025)

Legend:
[1] = system: SKBR-3 cells; test: In vitro cytotoxic assay of anti-Trop2 ADCs (CellTiter-Glo); format: cell-based; conditions: for Bottom (%): curve fit bottom; for Top (%): curve fit top
Procedure: (§1) In brief, 5,000 cells/well were platted in white clear 96-well assay plates (Cat. No. 6005182, PerkinElmer) (excluding edge wells, which contained medium only) in 90 μL basic culture medium (McCoy's 5a medium for SKBR-3 cells, RPMI-1640 medium for NCI-N87 cells, EMEM medium for MCF-7 cells, and Leibovitz's L-15 medium for MDA-MB-468 cells) containing 10% FBS, I % Penicillin-Streptomycin Solution (BL505A, Biosharp Life Sciences), and 2 mM L-Glutamine (Cat. No. 25030081, ThermoFisher) and were grown at 37° C. in a humidified incubator at 5% CO2 atmosphere. […] After additional 72-hour incubation, plates were removed from incubator and equilibrated to room temperature. After approximately 30 mins, 50 μL of CellTiter-Glo® 2.0 Luminescent Cell Viability Reagent (Cat. No. G7573, Promega) were added to each well. After shaking the plates at 450 rpm for 3 mins followed by 10-min incubation without shaking, luminescence was measure on the Envision plate reader (Equipment No. 2104, PerkinElmer) with integration time of 250 ms per well. Curves of luminescence versus ADC concentration (μM) were fitted with GraphPad Prism Software.

[2] = system: NCI-N87 cells; test: as above; format: cell-based
Procedure: as §1

[3] = system: MCF-7 cells; test: as above; format: cell-based; conditions: for Bottom (%): curve fit bottom
Procedure: as §1

[4] = system: MDA-MB-468 cells; test: as above; format: cell-based
Procedure: as §1

[5] = system: NCI-N87 cell xenograft; test: In vivo therapeutic efficacy in NCI-N87 cell xenograft mouse model; design: species or system BALB/c female nude mice; conditions: 5 mg/kg, IV, BIW*3
Procedure: On day 0, NCI-N87 cells (1×10^7 with 1:1 Matrigel) suspended in 0.2 mL PBS supplement with 50% (v/v) matrigel were injected subcutaneously in the right upper flank of 6- to 8-wk-old BALB/c female nude mice (purchased from Beijing Vital River Laboratory Animal Technology Co., Ltd). On day 6, mice were randomized to 8 groups (n=6) when the average tumor volume was 178 mm^3. Treatments were initiated on the very same day (defined as PG-D0). Mice at Trodelvy group received 5.0 mg/kg (i.v., BIW) for 3 wk; mice at the ADC-5 treatment groups were injected with 1.0, 2.5, and 5.0 mg/kg (i.v., BIW) ADC-5 for 3 wk; mice at ADC-6 treatment groups were injected (i.v.) with 1.0 and 2.5 mg/kg ADC-6 weekly (QW) for three doses, or 5.0 mg/kg (single dose at day PG-D0). The tumor volumes and body weights were measured and recorded twice a week. On the termination day 28 (defined as PG-D28), tumor weight were dissected and measured. Tumor growth inhibition rate (%) was calculated as (TVCR−TVTR)/TVCR (%), where TVCR and TVTR are the relative tumor volumes of the vehicle control group and the experimental groups, respectively. Mice were euthanized and deemed to have succumbed to disease once tumors grew greater than 2,500 mm^3. GraphPad Prism 6.0 Software was used for statistical analysis with a one-way ANOVA.

[6] = system: HER2 positive SKBR-3 cells; test: Antibody mediated internalization in HER2 expressing tumor cells, FACS; format: cell-based; conditions: 100 nM
Procedure: (§2) The culture conditions of two cell lines are the same as in Example 18.
(§3) Cells were harvested with 0.25% Trysin/EDTA (Tl 320, Solarbio) and adjusted the cell concentration to 4×10^6 cells/mL with 1×PBS containing 1% FBS buffer. […] The mixtures were incubated at 4° C. in an atmosphere of 5% CO2 in air. At specific time points, cells were immediately washed twice and suspended in 100 μL cold wash buffer containing 2% paraformaldehyde for 30 mins. Cells were washed twice and then incubated with 1×PE anti-human IgG Fc Antibody (Cat. No. 366904, Biolegend) at 4° C. and 5% CO2 for another one hour. After the two-step washing by washing buffer, cells were re-suspended in 100 μL FACS buffer, CytoFlex Cytometry (Beckman Coulter) was used to detect the fluorescent signals of cells. The internalization ratio at several time points were calculated as the missing rate of median fluorescence intensity (MFI) values at specific time point in that at 0 hours. Curves of internalization rate versus incubation time (hours) were plotted with the Graphpad Prism Software.

[7] = system: HER2 positive NCI-N87 cells; test: as above; format: cell-based; conditions: 100 nM
Procedure: as §2, §3

[8] = system: Trop2 positive SKBR-3 cells; test: Antibody mediated internalization in Trop2 expressing tumor cells, FACS; format: cell-based; conditions: 100 nM
Procedure: The Trop2 positive cell line SKBR-3 cells (Breast cancer, ATCC No. HTB30) were used for the following internalization assay. The culture conditions are the same as in Example 21.
Cells were harvested with 0.25% Trysin/EDTA (T1320, Solarbio) and adjusted the cell concentration to 4×10^6 cells/mL with 1×PBS containing 1% FBS buffer. 100 μL cells per well were then plated in the 96-well cell culture plates and incubated with Trop2 antibodies Trop2-1, Trop2-2, Datopotamab, and Sacituzumab, as well as exemplary anti-Trop2 ADCs (ADC-4, ADC-5, ADC-6, ADC-7, ADC-8 and ADC-9) at final concentration 100 nM for seven time points (0, 0.5, 2, 4, 8, 16, and 24 hours). The mixtures were incubated at 4° C. in an atmosphere of 5% CO2 in air. At specific time points, cells were immediately washed twice and suspended in 100 μL cold wash buffer containing 2% paraformaldehyde for 30 mins. Cells were washed twice and then incubated with 1×PE anti-human IgG Fc Antibody (Cat. No. 366904, Biolegend) at 4° C. and 5% CO2 for another one hour. After the two-step washing by washing buffer, cells were re-suspended in 100 μL FACS buffer, CytoFlex Cytometry (Beckman Coulter) was used to detect the fluorescent signals of cells. The internalization ratio at several time points were calculated as the missing rate of MFI values at specific time point in that at 0 hours. Curves of internalization rate versus incubation time (hours) were plotted with the Graphpad Prism Software.

[9] = system: SKBR-3, NCI-N87, MCF-7, and MDA-MB-468 cells; test: In vitro cytotoxic assays of anti-Trop2 ADCs, statements on all test cell lines; format: cell-based; conditions: four Trop-2 expressing cell lines, FIG. 6
Procedure: Cytotoxicity of exemplary free linker-payloads (Compounds 2, 3 and 4), free Trop2 antibodies (Trop2-1, Trop2-2, Datopotamab, and Sacituzumab), exemplary anti-Trop2 ADCs (ADC-4, ADC-5, ADC-6, ADC-7, ADC-8 and ADC-9) and Trodelvy (an anti-Trop2 ADC approved by FDA) as positive control was evaluated on SKBR-3 cells (Breast cancer, ATCC No. HTB30), NCI-N87 cells (Gastric cancer, ATCC No. CRL-5822), MCF-7 cells (Breast cancer, ATCC No. HTB-22), and MDA-MB-468 cells (Breast cancer, ATCC No. HTB-132).
as §1, with “After” for “After additional 72-hour incubation, plates were removed from incubator and equilibrated to room temperature. After approximately 30 mins, 50 μL of CellTiter-Glo® 2.0 Luminescent Cell Viability Reagent (Cat. No. G7573, Promega) were added to each well. After”

[10] = 72-hour incubation, read-out: ReIC50

Molecule: Trodelvy
- IC50 [1, 10]: 0.846 nM
- Bottom (%) [1]: 0%
- Top (%) [1]: 78.16%
- IC50 [2, 10]: 5.39 nM
- Bottom (%) ([2]; curve fit bottom): 0%
- Top (%) ([2]; curve fit top): 76.68%
- IC50 [3, 10]: 40.5 nM
- Bottom (%) [3]: 0%
- Top (%) ([3]; curve fit top): 35.94%
- IC50 [4, 10]: 2.33 nM
- Bottom (%) ([4]; curve fit bottom): 0%
- Top (%) ([4]; curve fit top): 79.13%
- TGI (%) in days after administration, Day 3 ([5]; Day 3): 44.83%
- TGI (%) in days after administration, Day 7 ([5]; Day 7): 44.43%
- TGI (%) in days after administration, Day 10 ([5]; Day 10): 39.67%
- TGI (%) in days after administration, Day 14 ([5]; Day 14): 42.59%
- TGI (%) in days after administration, Day 17 ([5]; Day 17): 49.05%
- TGI (%) in days after administration, Day 21 ([5]; Day 21): 55.07%
- TGI (%) in days after administration, Day 24 ([5]; Day 24): 55.32%
- TGI (%) in days after administration, Day 28 ([5]; Day 28): 54.53%

Molecule: T-DM1
- MFI value of internalization assay ([6]; 0 h): 89030.9
- MFI value of internalization assay ([6]; 0.5 h): 54683.9
- MFI value of internalization assay ([6]; 2 h): 51777.7
- MFI value of internalization assay ([6]; 4 h): 39019.6
- MFI value of internalization assay ([6]; 8 h): 31583.1
- MFI value of internalization assay ([6]; 16 h): 29393.7
- MFI value of internalization assay ([6]; 24 h): 20671.3
- MFI value of internalization assay ([7]; 0 h): 455385
- MFI value of internalization assay ([7]; 0.5 h): 452742.7
- MFI value of internalization assay ([7]; 2 h): 475100.1
- MFI value of internalization assay ([7]; 4 h): 369328.5
- MFI value of internalization assay ([7]; 8 h): 345220.2
- MFI value of internalization assay ([7]; 16 h): 362105.3
- MFI value of internalization assay ([7]; 24 h): 317532.7

Molecule: Sacituzumab: free Trop2 antibody
- Bottom (%) [1]: 3.225%
- Top (%) [1]: 9.741%
- Bottom (%) [3]: 0%
- MFI value of internalization assay ([8]; 0 h): 216386
- MFI value of internalization assay ([8]; 0.5 h): 205198.9
- MFI value of internalization assay ([8]; 2 h): 90975.5
- MFI value of internalization assay ([8]; 4 h): 75749.9
- MFI value of internalization assay ([8]; 8 h): 47695.7
- MFI value of internalization assay ([8]; 16 h): 33528.1
- MFI value of internalization assay ([8]; 24 h): 32475
- cytotoxic activity on the test cell lines [9]: no target cell killing effect

B1: Datopotamab: native human IgG1 antibody of DS-1062 from Daiichi Sankyo, free antibody control (antibody, chains of the INN, looked up, V domains shown)
VH: QVQLVQSGAEVKKPGASVKVSCKASGYTFTTAGMQWVRQAPGQGLEWMGWINTHSGVPKYAEDFKGRVTISADTSTSTAYLQLSSLKSEDTAVYYCARSGFGSSYWYFDVWGQGTLVTVSS
VL: DIQMTQSPSSLSASVGDRVTITCKASQDVSTAVAWYQQKPGKAPKLLIYSASYRYTGVPSRFSGSGSGTDFTLTISSLQPEDFAVYYCQQHYITPLTFGQGTKLEIK
- MFI value of internalization assay ([8]; 0 h): 237324.4
- MFI value of internalization assay ([8]; 0.5 h): 112896.1
- MFI value of internalization assay ([8]; 2 h): 41192.3
- MFI value of internalization assay ([8]; 4 h): 33418.6
- MFI value of internalization assay ([8]; 8 h): 19928.3
- MFI value of internalization assay ([8]; 16 h): 14134.9
- MFI value of internalization assay ([8]; 24 h): 8497.3
